What all share (type): in vivo
In test [1] the test system is NK1−/− and NK1+/+ mice. Briefly: Light/dark exploration box (LDEB), locomotor activity after d-AMP with or without NK1 antagonist pretreatment. The settings on record: for behaviour (locomotor activity, response to d-AMP) of NK1+/+ mice given a NK1 antagonist ('pseudo knockout'): RP 67580 5 or 10 mg/kg i.p. or L 733060 5 mg/kg; for locomotor activity (number of lines crossed): d-AMP 2.5 mg/kg i.p. Here is the method: Experiments were carried out on male NK1−/− (‘knock-out’) and NK1+/+(wild-type) mice, weighing 25-35 g (i.e. about 6-7 weeks of age). Mice were derived from a 129/Sv×C57BL/6 genetic background that had been crossed with an outbred MF1 strain (Harlan OLAC, Bicester, UK). All mice were taken from a colony maintained at University College London.
All experiments tested the behaviour of (formerly) treatment-naïve mice in the LDEB and were carried out between 13:00 h and 15:00 h. Each LDEB consisted of a small ‘dark zone’ (length, 15 cm; width, 20 cm; 174 lux) and a larger ‘light zone’ (length 30 cm; width, 20 cm; 346 lux). The walls and floor of the ‘dark zone’ were coloured black. The walls and floor of the ‘light zone’ were coloured white. The floor of both zones was marked as a grid of 5×5 cm squares (12 in the dark zone, 24 in the light zone) which was used to score locomotor activity. The partition separating the two zones incorporated a small (white) guillotine-style door (height 10.5 cm, width 7.5 cm), which could be raised to allow animals to commute between the two compartments. Mice were tested in pairs in two LDEBs, placed side by side. At 13:00 h, each mouse was placed in the dark zone of a LDEB, with the partition door closed. After 30 min in the dark zone, mice of each genotype were randomly assigned to one of six treatment groups (n=3˜4) and given an injection (10 mL/kg; i.p) of either vehicle (one drop of Tween 80 in saline to appropriate volume) or the NK1 antagonist, RP 67580 (5 or 10 mg/kg). The same subjects were given a second injection or either saline or d-amphetamine (2.5 mg/kg, i.p), 30 min later.
At 14:30 h, each mouse was transferred to the centre of the novel light zone, facing away from the guillotine style door. The door was immediately lifted to allow the animals to commute freely between the two compartments. Their behaviour was recorded with a Sony Handycam Vision video recorder for 30 min. The number of lines crossed by all four paws of the mouse (as an index of locomotor activity) was scored ‘blind’, in 5-min time-bins.
In a second experiment, this protocol was repeated, substituting the NK1 antagonist, L 733060 (5 mg/kg) in place of RP 67580. All other details (including Tween vehicle) were the same.
RP 67580 was administered at 5 or 10 mg/kg; dissolved in a drop of Tween 80 and adjusted to the appropriate concentration by adding 0.9% saline. […]
The data were analysed by three-way (experiment testing RP 67580) or two-way (for […]) ANOVA using ‘genotype’, ‘drug’ and ‘dose’ (if appropriate) as main factors. […] Data are expressed as means±s.e.mean and P≦0.05 was set as the criterion for significance.

The test system of test [2] is NK1−/− and NK1+/+ mice. Briefly: Microdialysis of extracellular dopamine in frontal cortex/striatum after d-amphetamine. The conditions noted are these: d-amphetamine 5 mg/kg i.p. Here is the method: (§1) Experiments were carried out on male NK1−/− (‘knock-out’) and NK1+/+ (wild-type) mice, weighing 25-35 g (i.e. about 6-7 weeks of age). Mice were derived from a 129/Sv×C57BL/6 genetic background that had been crossed with an outbred MF1 strain (Harlan OLAC, Bicester, UK). All mice were taken from a colony maintained at University College London.
Microdialysis probes were constructed in-house and equipped with cuprophan membrane (inner diameter 200 μm, outer diameter 250 μm, molecular weight cut-off 5 kD; Medicell International Ltd., England) forming an active dialysis window of 3.5 mm. Anaesthesia was induced in a closed chamber delivering 2.0% halothane combined with 95% O2/5% CO2 at 2 L/min. The mice were then placed in a stereotaxic frame and anaesthesia maintained, via a face mask, with 1.5% halothane in 95% O2/5% CO2 (2 L/min).
A small incision was made in the scalp to expose the skull and reveal bregma. […] Vital signs were monitored continually to ensure a respiratory rate of 100-190/min (average: 135±20/min). […]
The dopamine content of the dialysis samples was determined by HPLC coupled to electrochemical detection. […] Dopamine was detected using a Coulochem TI detector (ESA) and the mobile phase was conditioned by a guard cell (ESA model 5020). The […] content of the samples was calculated from the peak height of the chromatogram with reference to an external standard. […]

Another test relates to NK1R−/− and NK1R+/+ mice. Briefly: Activity meter (locomotor activity chamber), ambulatory activity. The settings on record: FIG. 2. As for the experimental part:
Behavioural tests were carried out in a standard locomotor activity chamber comprising a custom-made transparent perspex box (length 30 cm; width 19 cm; depth 18 cm). The box was placed in the centre of an activity meter (410×410 mm, Columbia Instruments, USA) which was equipped with parallel infrared beams spanning the chamber. Ambulatory activity was scored whenever the mouse interrupted two adjacent beams. Light intensity within the chamber was 82 lux. All experiments were performed in drug-naive mice, between 14:00 h and 18:30 h. […] The apparatus was cleaned thoroughly with water after each experiment.

Test [3] concerns NK1−/− and NK1+/+ mice. In words: Light/dark exploration box, locomotor activity after desipramine. The settings on record: desipramine 10 mg/kg i.p., FIG. 3. Here is the method: Experiments were carried out on male NK1−/− (‘knock-out’) and NK1+/+(wild-type) mice, weighing 25-31 g (i.e. about 6-7 weeks of age). Mice were derived from a 129/Sv×C57BL/6 genetic background that had been crossed with an outbred MF1 strain (Harlan OLAC, Bicester, UK). All mice were taken from a colony maintained at University College London. All experiments were performed in treatment-naïve mice, between 13:00 h and 17:00 h. Behavioural tests were carried out in a custom-built light/dark exploration box (LDEB) (length 45 cm; width 20 cm; depth 25 cm). The test box consisted of a small ‘dark zone’ (length 15 cm; 4 lux) and a larger ‘light zone’ (length 30 cm; 20 lux). The walls and floor of the ‘dark zone’ were coloured black. […] The behaviour of the mouse was recorded on video for the following 30 min. The following behaviours were later scored ‘blind’, in 10 min time-bins: i) latency to leave the light zone following forced entry (anxiety-like behaviour or impulsivity?) ii) latency to first return to the light zone following the first exit (the appearance of all four paws was the criterion for re-entry) (impulsivity) iii) number of returns to the light zone (impulsivity) iv) number of lines crossed by all four paws of the mouse (as an index of locomotor activity) Data were analysed by two-way analysis of variance (ANOVA) using ‘genotype’ and ‘treatment’ as main factors. […]

The test system of test [4] is NK1−/− and NK1+/+ mice. In words: Light/dark exploration box (LDEB), locomotor activity after methylphenidate. The settings on record: methylphenidate 2.5 mg/kg i.p. Here is the method: as §1
All experiments tested the behaviour of (formerly) treatment-naïve mice in the LDEB and were carried out between 13:00 h and 15:00 h. Each LDEB consisted of a small ‘dark zone’ (length, 15 cm; width, 20 cm; 174 lux) and a larger ‘light zone’ (length, 30 cm; width 20 cm; 346 lux). The walls and floor of the ‘dark zone’ were coloured black. The walls and floor of the ‘light zone’ were coloured white. […]
30 min later, the mice were transferred to the centre of the novel light zone, facing away from the guillotine style door. […] Their behaviour was recorded with a Sony Handycam Vision video recorder for 30 min. The number of lines crossed by all four paws of the mouse (an index of locomotor activity) was scored ‘blind’, in 10-min time-bins. […]
The data were analysed by two-way ANOVA using ‘genotype’ and ‘treatment as main factors. […] Data are expressed as means±s.e.mean and […] was set as the criterion for significance.

Entries after “also recorded” stand apart in the source; their conditions may differ.

As to `FC(F)(F)c1cc(CO[C@H]2CCCN[C@H]2c2ccccc2)cc(C(F)(F)F)c1` [L733060], in the test on NK1−/− and NK1+/+ mice [1] (NK1+/+ mice), the “behaviour (locomotor activity, response to d-AMP) of NK1+/+ mice given a NK1 antagonist ('pseudo knockout')” value was “Mimics that of Nk1−/− Mice”.

With `COc1ccccc1CC(=N)N1C[C@@H]2C(=O)CCC(c3ccccc3)(c3ccccc3)[C@@H]2C1` [RP 67580], the “behaviour (locomotor activity, response to d-AMP) of NK1+/+ mice given a NK1 antagonist ('pseudo knockout')” value in the test on NK1−/− and NK1+/+ mice [1] (NK1+/+ mice) was “Mimics that of Nk1−/− Mice”.

Regarding `C[C@H](N)Cc1ccccc1` [d-AMP, d-amphetamine], the “extracellular dopamine in the frontal cortex/striatum” value is on record as “increased” in the test on NK1−/− and NK1+/+ mice [2] (NK1+/+ mice); “no d-AMP induced increase; also recorded: not NK1−/− mice” with NK1−/− and NK1+/+ mice [2] (NK1−/− mice). In addition, the “locomotor activity (number of lines crossed)” value in the test on NK1−/− and NK1+/+ mice [1] (NK1+/+ mice) was “increased”; in the test on NK1−/− and NK1+/+ mice [1] (NK1−/− mice), “reduced”.

Consider `CNCCCN1c2ccccc2CCc2ccccc21` [desipramine], for which the “locomotor activity in an activity chamber” value in the test with NK1R−/− and NK1R+/+ mice (NK1R+/+ mice) is reported as “not NK1R+/+ mice”; in the test with NK1R−/− and NK1R+/+ mice (NK1R−/− mice), “reduces locomotor activity”. In addition, the “hyperactivity (locomotor activity) in a light/dark exploration box” value in the test on NK1−/− and NK1+/+ mice [3] is “reduction”.

As to `COC(=O)C(c1ccccc1)C1CCCCN1` (centres unmarked) [methylphenidate], the “locomotor activity (number of lines crossed)” value with NK1−/− and NK1+/+ mice [4] (NK1+/+ mice) is reported as “increased locomotor activity”; in the test on NK1−/− and NK1+/+ mice [4] (NK1−/− mice), “reduced activity”.

The values above are taken from patent US20100169994A1, “ANIMAL MODEL” (priority 2007, published 2010).
